The values below come from patent US20260374756A1, “HETEROCYCLIC COMPOUNDS AS INHIBITORS OF MONOACYLGLYCEROL LIPASE (MAGL)” (Hoffmann-La Roche Inc., priority 2022, published 2026).

In general, IC50 refers to the concentration that inhibits the measured activity by half. Read a low IC50 as higher potency.

This test has as its target T1, hMAGL (Homo sapiens, UniProt Q99685).
T1 sequence (Q99685 1-303): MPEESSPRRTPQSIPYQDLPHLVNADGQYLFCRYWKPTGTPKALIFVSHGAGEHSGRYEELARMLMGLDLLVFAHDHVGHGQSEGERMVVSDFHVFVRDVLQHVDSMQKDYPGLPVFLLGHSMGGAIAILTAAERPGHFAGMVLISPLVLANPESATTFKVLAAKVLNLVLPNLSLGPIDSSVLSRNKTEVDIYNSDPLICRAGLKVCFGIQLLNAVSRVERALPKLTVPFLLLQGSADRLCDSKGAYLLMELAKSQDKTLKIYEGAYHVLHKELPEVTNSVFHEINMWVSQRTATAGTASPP
Kind of test: 2-AG assay: MAGL inhibition, hydrolysis of 2-arachidonoylglycerol to arachidonic acid followed by mass spectrometry. It counts as biochemical. A digest of the protocol: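 Read-out is LC-MS/MS of arachidonic acid released from 2-arachidonoylglycerol (8 μM final), normalised to d8-arachidonic acid internal standard after acetonitrile quench. Enzyme […] and compound were pre-mixed 15 min, then reacted 30 min, both at RT, in Tris/EDTA buffer with 0.01% Tween-20 and 2.5% DMSO.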
Molecule `CC(C)(C)c1conc1CN1CC2(C1)CN(C(=O)N1CC3(CC(n4cnc(C(F)(F)F)n4)C3)C1)C2` [Example 255, [6-[(4-tert-butylisoxazol-3-yl)methyl]-2,6-diazaspiro[3.3]heptan-2-yl]-[6-[3-(trifluoromethyl)-1,2,4-triazol-1-yl]-2-azaspiro[3.3]heptan-2-yl]methanone] registered an IC50 of 18.7 nM. As for `CC(C)(C)c1conc1CN1CC2(C1)CN(C(=O)N1CC3(CC(n4cnc(C5CC5)n4)C3)C1)C2` [Example 256, [6-[(4-tert-butylisoxazol-3-yl)methyl]-2,6-diazaspiro[3.3]heptan-2-yl]-[6-(3-cyclopropyl-1,2,4-triazol-1-yl)-2-azaspiro[3.3]heptan-2-yl]methanone], the figure is 2.79 nM. As for `O=C(N1CC2(CC(n3cnc(C4CC4)n3)C2)C1)N1CC2(CN(Cc3cc[nH]n3)C2)C1` [Example 257, [6-(3-cyclopropyl-1,2,4-triazol-1-yl)-2-azaspiro[3.3]heptan-2-yl]-[6-(1H-pyrazol-3-ylmethyl)-2,6-diazaspiro[3.3]heptan-2-yl]methanone], the figure is 1630 nM; as for `CC(F)(F)c1noc(CN2CC3(C2)CN(C(=O)N2CC4(CC(n5cnc(C(F)(F)F)n5)C4)C2)C3)n1` [Example 258, [6-[[3-(1,1-difluoroethyl)-1,2,4-oxadiazol-5-yl]methyl]-2,6-diazaspiro[3.3]heptan-2-yl]-[6-[3-(trifluoromethyl)-1,2,4-triazol-1-yl]-2-azaspiro[3.3]heptan-2-yl]methanone], 53 nM; as for `CC(F)(F)c1noc(CN2CC3(C2)CN(C(=O)N2CC4(CC(n5cnc(C6CC6)n5)C4)C2)C3)n1` [Example 259, [6-(3-cyclopropyl-1,2,4-triazol-1-yl)-2-azaspiro[3.3]heptan-2-yl]-[6-[[3-(1,1-difluoroethyl)-1,2,4-oxadiazol-5-yl]methyl]-2,6-diazaspiro[3.3]heptan-2-yl]methanone], 8.92 nM. As to `O=C(N1CC2(CC(n3cnc(C(F)(F)F)n3)C2)C1)N1CC2(CN(Cc3ccnn3CC(F)F)C2)C1` [Example 260, [6-[[2-(2,2-difluoroethyl)pyrazol-3-yl]methyl]-2,6-diazaspiro[3.3]heptan-2-yl]-[6-[3-(trifluoromethyl)-1,2,4-triazol-1-yl]-2-azaspiro[3.3]heptan-2-yl]methanone], half-maximal inhibition (IC50) required 167 nM.

`O=C(N1CC2(CC(n3cnc(C4CC4)n3)C2)C1)N1CC2(CN(Cc3ccnn3CC(F)F)C2)C1` [Example 261, [6-(3-cyclopropyl-1,2,4-triazol-1-yl)-2-azaspiro[3.3]heptan-2-yl]-[6-[[2-(2,2-difluoroethyl)pyrazol-3-yl]methyl]-2,6-diazaspiro[3.3]heptan-2-yl]methanone] displayed an IC50 of 95.7 nM. Compared with the last molecule, the IC50 is about 1.7-fold lower. `O=C(N1CC2(CC(n3cnc(C(F)(F)F)n3)C2)C1)N1CC2(CN(Cc3cnn(C(F)F)c3)C2)C1` [Example 262, [6-[[1-(difluoromethyl)pyrazol-4-yl]methyl]-2,6-diazaspiro[3.3]heptan-2-yl]-[6-[3-(trifluoromethyl)-1,2,4-triazol-1-yl]-2-azaspiro[3.3]heptan-2-yl]methanone]: the IC50 stood at 539 nM.

In turn, `O=C(N1CC2(CC(n3cnc(C4CC4)n3)C2)C1)N1CC2(CN(Cc3cnn(C(F)F)c3)C2)C1` [Example 263, [6-(3-cyclopropyl-1,2,4-triazol-1-yl)-2-azaspiro[3.3]heptan-2-yl]-[6-[[1-(difluoromethyl)pyrazol-4-yl]methyl]-2,6-diazaspiro[3.3]heptan-2-yl]methanone] returned an IC50 of 102 nM. For the molecule `O=C(N1CC2(CC(n3cnc(C(F)(F)F)n3)C2)C1)N1CC2(CN(Cc3nc(CC4CC4)no3)C2)C1` [Example 264, [6-[[3-(cyclopropylmethyl)-1,2,4-oxadiazol-5-yl]methyl]-2,6-diazaspiro[3.3]heptan-2-yl]-[6-[3-(trifluoromethyl)-1,2,4-triazol-1-yl]-2-azaspiro[3.3]heptan-2-yl]methanone], the IC50 was found to be 76.3 nM. The IC50 values of the last two molecules are within 1.5-fold of each other. Regarding `O=C(N1CC2(CC(n3cnc(C4CC4)n3)C2)C1)N1CC2(CN(Cc3nc(CC4CC4)no3)C2)C1` [Example 265, [6-[[3-(cyclopropylmethyl)-1,2,4-oxadiazol-5-yl]methyl]-2,6-diazaspiro[3.3]heptan-2-yl]-[6-(3-cyclopropyl-1,2,4-triazol-1-yl)-2-azaspiro[3.3]heptan-2-yl]methanone], the half-inhibitory concentration (IC50) was 9.94 nM. As for `CC(C)(C)c1noc(CN2CC3(C2)CN(C(=O)N2CC4(CC(n5cnc(C6CC6)n5)C4)C2)C3)n1` [Example 266, [6-[(3-tert-butyl-1,2,4-oxadiazol-5-yl)methyl]-2,6-diazaspiro[3.3]heptan-2-yl]-[6-(3-cyclopropyl-1,2,4-triazol-1-yl)-2-azaspiro[3.3]heptan-2-yl]methanone], the figure is 2 nM; as for `Cc1onc(C2CC2)c1CN1CC2(C1)CN(C(=O)N1CC3(CC(n4cnc(C(F)(F)F)n4)C3)C1)C2` [Example 267, [6-[(3-cyclopropyl-5-methyl-isoxazol-4-yl)methyl]-2,6-diazaspiro[3.3]heptan-2-yl]-[6-[3-(trifluoromethyl)-1,2,4-triazol-1-yl]-2-azaspiro[3.3]heptan-2-yl]methanone], 66.6 nM.

Molecule `Cc1onc(C2CC2)c1CN1CC2(C1)CN(C(=O)N1CC3(CC(n4cnc(C5CC5)n4)C3)C1)C2` [Example 268, [6-[(3-cyclopropyl-5-methyl-isoxazol-4-yl)methyl]-2,6-diazaspiro[3.3]heptan-2-yl]-[6-(3-cyclopropyl-1,2,4-triazol-1-yl)-2-azaspiro[3.3]heptan-2-yl]methanone] displayed an IC50 of 8.8 nM.

`Cc1onc(C2CC2)c1CN1CC2(C1)CN(C(=O)N1CC3(CC(n4cnc(C5(O)CC5)n4)C3)C1)C2` [Example 269, [6-[(3-cyclopropyl-5-methyl-isoxazol-4-yl)methyl]-2,6-diazaspiro[3.3]heptan-2-yl]-[6-[3-(1-hydroxycyclopropyl)-1,2,4-triazol-1-yl]-2-azaspiro[3.3]heptan-2-yl]methanone] returned an IC50 of 311 nM.

`Cn1nc(C2CC2)cc1CN1CC2(C1)CN(C(=O)N1CC3(CC(c4cc(C5CC5)n[nH]4)C3)C1)C2` [Example 270, [6-[(5-cyclopropyl-2-methyl-pyrazol-3-yl)methyl]-2,6-diazaspiro[3.3]heptan-2-yl]-[6-(3-cyclopropyl-1H-pyrazol-5-yl)-2-azaspiro[3.3]heptan-2-yl]methanone] had an IC50 of 4.89 nM. The molecule `Cn1nc(C2CC2)cc1CN1CC2(C1)CN(C(=O)N1CC3(CC(n4cnc(C(F)(F)F)n4)C3)C1)C2` [Example 271] showed an IC50 of 14.8 nM. Against the preceding molecule, the IC50 is about 3-fold higher. For the molecule `Cn1nc(C2CC2)cc1CN1CC2(C1)CN(C(=O)N1CC3(CC(n4cnc(C5CC5)n4)C3)C1)C2` [Example 272, [6-[(5-cyclopropyl-2-methyl-pyrazol-3-yl)methyl]-2,6-diazaspiro[3.3]heptan-2-yl]-[6-(3-cyclopropyl-1,2,4-triazol-1-yl)-2-azaspiro[3.3]heptan-2-yl]methanone], half-maximal inhibition (IC50) required 7 nM.

For `O=C(N1CC2(CC(n3cnc(C(F)(F)F)n3)C2)C1)N1CC2(CN(Cc3cc(C4CCC4)[nH]n3)C2)C1` [Example 273, [6-[(5-cyclobutyl-1H-pyrazol-3-yl)methyl]-2,6-diazaspiro[3.3]heptan-2-yl]-[6-[3-(trifluoromethyl)-1,2,4-triazol-1-yl]-2-azaspiro[3.3]heptan-2-yl]methanone], the IC50 came to 12 nM. Against the preceding molecule, the IC50 is about 1.7-fold higher.
